Laboratory results as given in US11553712B2 (priority 2010, dated 2023).
Like-named read-outs stand apart in the source and are kept apart here. Marks after values point to notes of the source that are not given here.

Legend:
[1] = system: TGEV; settings: 45% (v/v) PG eluate, 20°C
[2] = system: BVDV; settings: 45% (v/v) PG eluate, 20°C
[3] = system: PRV; settings: eluate with 45% PG
[4] = TGEV Run 1, T = 0 min Load Sample, Standard titration
[5] = TGEV Run 1, T = 5 min, Standard titration
[6] = TGEV Run 1, T = 15 min, Standard titration
[7] = TGEV Run 1, T = 60 min, Standard titration
[8] = TGEV Run 1, T = 180 min, Standard titration
[9] = TGEV Run 1, T = 360 min, Standard titration
[10] = TGEV Run 2, T = 0 min Load Sample, Standard titration
[11] = TGEV Run 2, T = 5 min, Standard titration
[12] = TGEV Run 2, T = 15 min, Standard titration
[13] = TGEV Run 2, T = 60 min, Standard titration
[14] = TGEV Run 2, T = 180 min, 1LVP (96 wells)
[15] = TGEV Run 2, T = 360 min, 1 LVP (96 wells)
[16] = BVDV Run 1, T = 0 min Load Sample, Standard titration
[17] = BVDV Run 1, T = 5 min, Standard titration
[18] = BVDV Run 1, T = 15 min, Standard titration
[19] = BVDV Run 1, T = 60 min, Standard titration
[20] = BVDV Run 1, T = 180 min, Standard titration
[21] = BVDV Run 1, T = 360 min, Standard titration
[22] = BVDV Run 2, T = 0 min Load Sample, Standard titration
[23] = BVDV Run 2, T = 5 min, Standard titration
[24] = BVDV Run 2, T = 15 min, Standard titration
[25] = BVDV Run 2, T = 60 min, Standard titration
[26] = BVDV Run 2, T = 180 min, Standard titration
[27] = T = 6 h (+SD) (Standard titration)

## propane-1,2-diol [PG]
[1]; [4]
  Clearance Factor: 0.07 log
  Log10TICD50 (total viral load): 7.38 Log10TICD50
  Titre: 5.12 log10TCID50/ml
[1]; [5]
  Clearance Factor: 1.24 log
  Log10TICD50 (total viral load): 6.21 Log10TICD50
  Titre: 3.95 log10TCID50/ml
[1]; TGEV Run 1, T = 5 min vs T0, Standard titration
  Reduction Factor: 1.17 log
[1]; [6]
  Clearance Factor: 2.41 log
  Log10TICD50 (total viral load): 5.04 Log10TICD50
  Titre: 2.78 log10TCID50/ml
[1]; TGEV Run 1, T = 15 min vs T0, Standard titration
  Reduction Factor: 2.34 log
[1]; [7]
  Clearance Factor: 3.87 log
  Log10TICD50 (total viral load): 3.58 Log10TICD50
  Titre: 1.32 log10TCID50/ml
[1]; TGEV Run 1, T = 60 min vs T0, Standard titration
  Reduction Factor: 3.8 log
[1]; [8]
  Clearance Factor: 4.39 log
  Log10TICD50 (total viral load): 3.06 Log10TICD50
  Titre: 0.8 log10TCID50/ml
[1]; TGEV Run 1, T = 180 min vs T0, Standard titration
  Reduction Factor: 4.32 log
[1]; [9]
  Clearance Factor: >4.39 log
  Log10TICD50 (total viral load): <3.06 Log10TICD50
  Titre: <0.8 log10TCID50/ml
[1]; TGEV Run 1, T = 360 min vs T0, Standard titration
  Reduction Factor: >4.32 log
[1]; [10]
  Clearance Factor: 0.08 log
  Log10TICD50 (total viral load): 7.54 Log10TICD50
  Titre: 5.28 log10TCID50/ml
[1]; [11]
  Clearance Factor: 1.08 log
  Log10TICD50 (total viral load): 6.54 Log10TICD50
  Titre: 4.28 log10TCID50/ml
[1]; TGEV Run 2, T = 5 min vs T0, Standard titration
  Reduction Factor: 1 log
[1]; [12]
  Clearance Factor: 2.16 log
  Log10TICD50 (total viral load): 5.46 Log10TICD50
  Titre: 3.2 log10TCID50/ml
[1]; TGEV Run 2, T = 15 min vs T0, Standard titration
  Reduction Factor: 2.08 log
[1]; [13]
  Clearance Factor: 4.56 log
  Log10TICD50 (total viral load): 3.06 Log10TICD50
  Titre: 0.8 log10TCID50/ml
[1]; TGEV Run 2, T = 60 min vs T0, Standard titration
  Reduction Factor: 4.48 log
[1]; [14]
  Clearance Factor: 5.48 log
  Log10TICD50 (total viral load): 2.14 Log10TICD50
  Titre: −0.12 log10TCID50/ml
[1]; TGEV Run 2, T = 180 min vs T0, 1LVP (96 wells)
  Reduction Factor: 5.4 log
[1]; [15]
  Clearance Factor: >5.48 log
  Log10TICD50 (total viral load): <2.14 Log10TICD50
  Titre: <−0.12 log10TCID50/ml
[1]; TGEV Run 2, T = 360 min vs T0, 1 LVP (96 wells)
  Reduction Factor: >5.40 log
[2]; [16]
  Clearance Factor: 0.43 log
  Log10TICD50 (total viral load): 5.85 Log10TICD50
  Titre: 3.12 log10TCID50/ml
[2]; [17]
  Clearance Factor: 1.65 log
  Log10TICD50 (total viral load): 4.63 Log10TICD50
  Titre: 1.9 log10TCID50/ml
[2]; BVDV Run 1, T = 5 min vs T0, Standard titration
  Reduction Factor: 1.22 log
[2]; [18]
  Clearance Factor: 1.3 log
  Log10TICD50 (total viral load): 4.98 Log10TICD50
  Titre: 2.25 log10TCID50/ml
[2]; BVDV Run 1, T = 15 min vs T0, Standard titration
  Reduction Factor: 0.87 log
[2]; [19]
  Clearance Factor: 1.3 log
  Log10TICD50 (total viral load): 4.98 Log10TICD50
  Titre: 2.25 log10TCID50/ml
[2]; BVDV Run 1, T = 60 min vs T0, Standard titration
  Reduction Factor: 0.87 log
[2]; [20]
  Clearance Factor: 1.3 log
  Log10TICD50 (total viral load): 4.98 Log10TICD50
  Titre: 2.25 log10TCID50/ml
[2]; BVDV Run 1, T = 180 min vs T0, Standard titration
  Reduction Factor: 0.87 log
[2]; [21]
  Clearance Factor: 2.75 log
  Log10TICD50 (total viral load): 3.53 Log10TICD50
  Titre: 0.8 log10TCID50/ml
[2]; BVDV Run 1, T = 360 min vs T0, Standard titration
  Reduction Factor: >4.32 log
[2]; [22]
  Clearance Factor: 0.44 log
  Log10TICD50 (total viral load): 5.76 Log10TICD50
  Titre: 3.03 log10TCID50/ml
[2]; [23]
  Clearance Factor: 1.88 log
  Log10TICD50 (total viral load): 4.32 Log10TICD50
  Titre: 1.59 log10TCID50/ml
[2]; BVDV Run 2, T = 5 min vs T0, Standard titration
  Reduction Factor: 1.44 log
[2]; [24]
  Clearance Factor: 2.15 log
  Log10TICD50 (total viral load): 4.05 Log10TICD50
  Titre: 1.32 log10TCID50/ml
[2]; BVDV Run 2, T = 15 min vs T0, Standard titration
  Reduction Factor: 1.71 log
[2]; [25]
  Clearance Factor: 1.88 log
  Log10TICD50 (total viral load): 4.32 Log10TICD50
  Titre: 1.59 log10TCID50/ml
[2]; BVDV Run 2, T = 60 min vs T0, Standard titration
  Reduction Factor: 1.44 log
[2]; [26]
  Clearance Factor: >2.67 log
  Log10TICD50 (total viral load): <3.53 Log10TICD50
  Titre: <0.8 log10TCID50/ml
[2]; BVDV Run 2, T = 180 min vs T0, Standard titration
  Reduction Factor: >2.23 log
[2]; BVDV Run 2, T = 360 min, 1 LVP
  Clearance Factor: >3.59 log
  Log10TICD50 (total viral load): <2.61 Log10TICD50
  Titre: <−0.12 log10TCID50/ml
[2]; BVDV Run 2, T = 360 min vs T0, 1 LVP
  Reduction Factor: >3.15 log
[3]; Control T = 0 h (w/o SD)
  Titer: 2.17 ± 0.30 TCID50/ml
  Viral Load: 4.47 ± 0.30 log10
[3]; Control T = 6 h (w/o SD)
  Titer: ≤0.78* TCID50/ml
  Viral Load: ≤3.08 log10
[3]; T = 0 h (+SD)
  Titer: ≤1.48* TCID50/ml
  Viral Load: ≤3.78 log10
[3]; T = 1 h (+SD)
  Titer: ≤1.48* TCID50/ml
  Viral Load: ≤3.78 log10
[3]; T = 3 h (+SD)
  Titer: ≤1.48* TCID50/ml
  Viral Load: ≤3.78 log10
[3]; [27]
  Titer: ≤1.48* TCID50/ml
  Viral Load: ≤3.78 log10
